# Experimental data published in PubChem BioAssay AID1000 (SRMLSC, 2008).
# Active and inactive are the calls of the source.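 Rule for the calls: active = over 20% inhibition at the single screening dose, then confirmed by dose response with half-maximal potency of 40 µM or better; inactive = the rest.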
# Target: mevalonate kinase (Streptococcus pneumoniae D39)
# Experiment: mevalonate kinase inhibitor confirmation – biochemical, cuvette format, NADH absorbance 340 nm (AID 1000)
# Settings: recombinant MK, PK/LDH coupled NADH absorbance 340 nm
row,IC50,Compound
1,0.304 µM,CCCN(CCC)C(=O)c1cccc(-n2sc3ccccc3c2=O)c1
2,17.3 µM,O=c1c2ccccc2nc2n1CCC2NC(c1ccccc1)c1ccccc1 (configuration not stated)
3,0.304 µM,O=C(NCCN1CCCC1)c1ccc(-n2sc3ccccc3c2=O)cc1
4,0.176 µM,O=C(NCC1CC1)c1ccc(-n2sc3ccccc3c2=O)cc1
5,0.171 µM,O=C(NC1CC1)c1ccc(-n2sc3ccccc3c2=O)cc1
6,0.083 µM,Cc1ccc(-n2sc3ccccc3c2=O)cc1S(=O)(=O)N1CCCC1
7,0.958 µM,O=C(NC1CC1)c1ccccc1-n1sc2ccccc2c1=O
8,0.134 µM,CCCNC(=O)c1ccc(-n2sc3ccccc3c2=O)cc1
9,0.579 µM,O=C(NCc1ccco1)c1ccccc1-n1sc2ccccc2c1=O
10,0.094 µM,O=C(NCc1ccccc1)c1ccc(-n2sc3ccccc3c2=O)cc1
11,0.23 µM,O=C(c1cccc(-n2sc3ccccc3c2=O)c1)N1CCCC1
12,0.137 µM,O=C(NCc1ccco1)c1cccc(-n2sc3ccccc3c2=O)c1
13,0.389 µM,CN(C)C(=O)c1ccc(-n2sc3ccccc3c2=O)cc1
14,0.198 µM,O=C(c1ccc(-n2sc3ccccc3c2=O)cc1)N1CCCC1
15,0.754 µM,CN(C)C(=O)c1ccccc1-n1sc2ccccc2c1=O
16,0.242 µM,O=C(NCc1ccccc1)c1ccccc1-n1sc2ccccc2c1=O
17,0.514 µM,O=C(c1ccccc1-n1sc2ccccc2c1=O)N1CCCC1
18,0.068 µM,O=C(NCc1ccccc1)c1cccc(-n2sc3ccccc3c2=O)c1

row,IC50,Compound
1,0.277 µM,CCCNC(=O)c1cccc(-n2sc3ccccc3c2=O)c1
2,0.23 µM,CCN(CC)C(=O)c1ccc(-n2sc3ccccc3c2=O)cc1
3,0.383 µM,O=C(c1ccc(-n2sc3ccccc3c2=O)cc1)N1CCOCC1
4,0.369 µM,CN(C)C(=O)c1cccc(-n2sc3ccccc3c2=O)c1
5,0.531 µM,O=C(c1ccccc1-n1sc2ccccc2c1=O)N1CCCCC1
6,0.197 µM,O=C(NC1CC1)c1cccc(-n2sc3ccccc3c2=O)c1
7,0.381 µM,CCCNC(=O)c1ccccc1-n1sc2ccccc2c1=O
8,0.246 µM,O=C(c1ccc(-n2sc3ccccc3c2=O)cc1)N1CCCCC1
9,0.157 µM,O=C(NCc1ccco1)c1ccc(-n2sc3ccccc3c2=O)cc1
10,0.459 µM,CN1CCN(C(=O)c2ccc(-n3sc4ccccc4c3=O)cc2)CC1
11,0.795 µM,CCCN(CCC)C(=O)c1ccccc1-n1sc2ccccc2c1=O
12,0.168 µM,CCCN(CCC)C(=O)c1ccc(-n2sc3ccccc3c2=O)cc1
13,0.214 µM,CCN(CC)C(=O)c1cccc(-n2sc3ccccc3c2=O)c1
14,0.306 µM,Cc1ccc(-n2sc3ccccc3c2=O)cc1C(=O)N1CCCCC1
15,1.63 µM,O=C(c1ccccc1-n1sc2ccccc2c1=O)N1CCOCC1
16,0.432 µM,O=C(c1cccc(-n2sc3ccccc3c2=O)c1)N1CCOCC1
17,1.01 µM,CCN(CC)C(=O)c1ccccc1-n1sc2ccccc2c1=O
18,0.244 µM,O=C(c1cccc(-n2sc3ccccc3c2=O)c1)N1CCCCC1

# Same assay, conditions: recombinant MK, PK/LDH coupled NADH absorbance 340 nm; at 100 µM; hits give high values
row,inhibition,Compound
1,inactive,Cc1ccc2nc3n(c(=O)c2c1)CCC3
2,inactive,O=c1c2ccccc2nc2n1CCC2SCc1ccccc1 (configuration not stated)
3,inactive,O=c1c2cc(Cl)ccc2nc2n1CCC2
4,inactive,O=c1c2ccccc2nc2n1CCC2SCCc1ccccc1 (configuration not stated)
5,inactive,O=c1c2c(Cl)cccc2nc2n1CCC2
6,inactive,O=c1c2cc(Br)ccc2nc2n1CCC2
7,inactive,O=c1c2c(F)cccc2nc2n1CCC2
8,inactive,Cc1cccc2c(=O)n3c(nc12)CCC3
9,inactive,O=c1c2ccc(Cl)cc2nc2n1CCC2
10,inactive,O=c1c2ccccc2nc2n1CCC2NC1CC1 (configuration not stated)
11,inactive,COc1cc2nc3n(c(=O)c2cc1OC)CCC3
12,inactive,O=c1c2ccc(F)cc2nc2n1CCC2
13,inactive,O=c1c2cc(F)ccc2nc2n1CCC2
14,inactive,O=c1c2ccccc2nc2n1CCC2(Br)Br
15,inactive,O=c1c2ccccc2nc2n1CCC2N1CCC(Cc2ccccc2)CC1 (configuration not stated)
16,inactive,COc1cccc2c(=O)n3c(nc12)/C(=C/c1ccc2c(c1)OCO2)CC3
17,inactive,COc1ccc(CSC2CCn3c2nc2ccccc2c3=O)cc1 (configuration not stated)
18,inactive,O=c1c2ccccc2nc2n1CCC2N1CCOCC1 (configuration not stated)
19,inactive,COc1cccc2c(=O)n3c(nc12)CCC3
20,inactive,COc1cccc(CCNC2CCn3c2nc2ccccc2c3=O)c1 (configuration not stated)
21,inactive,O=c1c2cccc(Cl)c2nc2n1CCC2
